This passage reports IC50 and Ki results from ChEMBL document CHEMBL1139512, “Further studies on the interaction of the 5-hydroxytryptamine3 (5-HT3) receptor with arylpiperazine ligands. development of a new 5-HT3 receptor ligand showing potent acetylcholinesterase inhibitory properties” (J Med Chem, 2005).

Each structure is given as a SMILES string.

T1 sequence (P06276 whole entry): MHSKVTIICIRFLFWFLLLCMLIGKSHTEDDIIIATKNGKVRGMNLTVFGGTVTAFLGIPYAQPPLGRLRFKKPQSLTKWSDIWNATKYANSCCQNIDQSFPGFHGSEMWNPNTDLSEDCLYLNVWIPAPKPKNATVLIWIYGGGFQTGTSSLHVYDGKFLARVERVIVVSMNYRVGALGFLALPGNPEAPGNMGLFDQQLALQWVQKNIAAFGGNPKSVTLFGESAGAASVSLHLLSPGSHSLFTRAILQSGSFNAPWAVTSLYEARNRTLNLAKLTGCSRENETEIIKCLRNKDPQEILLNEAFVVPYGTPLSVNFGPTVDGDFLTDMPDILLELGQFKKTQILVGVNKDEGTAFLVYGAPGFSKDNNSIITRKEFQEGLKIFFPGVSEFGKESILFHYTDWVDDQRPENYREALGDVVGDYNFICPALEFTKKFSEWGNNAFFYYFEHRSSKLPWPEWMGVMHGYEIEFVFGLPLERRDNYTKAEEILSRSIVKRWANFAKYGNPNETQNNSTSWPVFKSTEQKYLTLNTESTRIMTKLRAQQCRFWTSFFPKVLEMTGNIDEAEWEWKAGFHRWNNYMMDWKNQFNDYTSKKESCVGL

One assay has as its target T1, Cholinesterase (Homo sapiens, UniProt P06276). As to the kind of experiment: Inhibitory concentration against butyrylcholinesterase.
In the case of `Cc1c(N2CCN(C)CC2)nc2ccccc2c1C(=O)NCCCCCCCNc1c2c(nc3ccccc13)CCCC2`, the IC50 stood at 40 nM. This counts as double-digit nanomolar.

The compound `Cc1c(Cl)nc2ccccc2c1C(=O)NCCCCCCCNc1c2c(nc3ccccc13)CCCC2` yielded an IC50 of 32 nM.

The next assay concerns the target T1, Cholinesterase.
`Cc1c(N2CCN(C)CC2)nc2ccccc2c1C(=O)N(C)Cc1ccccc1` had an IC50 greater than 10000 nM.

`CCOC(=O)c1c(C)c(N2CCN(C)CC2)nc2ccccc12` showed an IC50 greater than 10000 nM.

In another assay the target is T2, Serotonin 3 (5-HT3) receptor (Rattus norvegicus, UniProt P35563+Q9JJ16).
T2 sequence (P35563 whole entry): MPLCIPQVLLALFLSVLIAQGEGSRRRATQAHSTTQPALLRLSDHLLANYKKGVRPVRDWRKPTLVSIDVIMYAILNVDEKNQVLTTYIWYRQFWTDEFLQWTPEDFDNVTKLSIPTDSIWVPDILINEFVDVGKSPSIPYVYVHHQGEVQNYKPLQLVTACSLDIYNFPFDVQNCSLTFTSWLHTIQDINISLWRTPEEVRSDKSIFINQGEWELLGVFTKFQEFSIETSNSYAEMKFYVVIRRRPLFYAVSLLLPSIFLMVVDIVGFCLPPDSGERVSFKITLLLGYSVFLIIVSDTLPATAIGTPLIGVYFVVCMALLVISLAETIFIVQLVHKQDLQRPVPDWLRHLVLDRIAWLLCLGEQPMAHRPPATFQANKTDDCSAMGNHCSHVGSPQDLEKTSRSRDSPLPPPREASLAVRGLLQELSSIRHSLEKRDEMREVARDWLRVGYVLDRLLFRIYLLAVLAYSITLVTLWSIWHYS
T2 sequence (Q9JJ16 whole entry): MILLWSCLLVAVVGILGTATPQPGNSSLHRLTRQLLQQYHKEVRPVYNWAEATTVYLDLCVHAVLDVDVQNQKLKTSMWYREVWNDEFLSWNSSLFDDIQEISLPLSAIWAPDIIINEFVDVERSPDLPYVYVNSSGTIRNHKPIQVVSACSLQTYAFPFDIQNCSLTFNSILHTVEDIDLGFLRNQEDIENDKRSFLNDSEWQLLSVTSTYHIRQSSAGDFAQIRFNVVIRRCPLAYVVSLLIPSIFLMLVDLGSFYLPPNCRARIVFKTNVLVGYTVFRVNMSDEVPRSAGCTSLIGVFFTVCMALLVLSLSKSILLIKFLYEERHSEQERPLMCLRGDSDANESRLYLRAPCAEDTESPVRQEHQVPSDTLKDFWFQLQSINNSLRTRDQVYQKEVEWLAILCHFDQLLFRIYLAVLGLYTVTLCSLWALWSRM
`CCc1c(N2CCN(C)CC2)nc2ccccc2c1C(=O)N(CC)CC`: the inhibitory constant (Ki) is 0.51 nM.

`CCCCCCN(CCCCCC)C(=O)c1c(C)c(N2CCN(C)CC2)nc2ccccc12` displayed a Ki of 188 nM. This Ki lies about 370-fold higher than the previous one.

`Cc1c(N2CCN(C)CC2)nc2ccccc2c1C(=O)NCCCCCCCNc1c2c(nc3ccccc13)CCCC2` returned an inhibition constant (Ki) of 5.6 nM.

Compound `CCOC(=O)c1cc(N2CCN(C)CC2)nc2ccccc12` had a Ki of 0.85 nM. Against the preceding compound, the Ki is about 6.6-fold lower.

The compound `CCCc1c(N2CCN(C)CC2)nc2ccccc2c1C(=O)N(CC)CC` returned a Ki of 0.92 nM. This Ki and that of the compound before are within 1.5-fold of each other.

In turn, `CCCN1Cc2c(N3CCN(C)CC3)nc3ccccc3c2C1=O` returned an inhibition constant Ki of 3.6 nM.

Compound `C#CCN(C)C(=O)c1c(C)c(N2CCN(C)CC2)nc2ccccc12` yielded a Ki of 0.45 nM.

Regarding `CN1CCN(c2cc(C(=O)N(C)Cc3ccccc3)c3ccccc3n2)CC1`, the Ki was found to be 0.41 nM.

In the case of `CCc1c(N2CCN(C)CC2)nc2ccccc2c1C(=O)N(C)Cc1ccccc1`, affinity was put at a Ki of 10 nM.

In turn, `Cc1c(N2CCN(C)CC2)nc2ccccc2c1C(=O)c1ccccc1` gave a Ki of 0.84 nM.

With `CCN1Cc2c(N3CCN(C)CC3)nc3ccccc3c2C1=O`, the affinity corresponds to a Ki of 3 nM.

On to `Cc1c(N2CCN(C)CC2)nc2ccccc2c1C(=O)N(C)c1ccc(Cl)cc1`, for which the inhibition constant (Ki) came to 13 nM. This Ki is about 4.3-fold higher than that of the compound before.

In turn, `CCOC(=O)c1c(C)c(N2CCNCC2)nc2ccccc12` had a Ki of 0.56 nM.

For the compound `CN1CCN(c2nc3ccccc3c3c2CN(C)C3=O)CC1`, the Ki came out at 2.1 nM.

As for `CCCN(CCC)C(=O)c1c(C)c(N2CCN(C)CC2)nc2ccccc12`, affinity was put at a Ki of 0.11 nM.

In turn, `CCCCCN(CCCCC)C(=O)c1c(C)c(N2CCN(C)CC2)nc2ccccc12` displayed a Ki of 19 nM. Compared with the last compound, the Ki is about 170-fold higher.

On to `CCCN(CCC)C(=O)c1cc(N2CCN(C)CC2)nc2ccccc12`, for which the Ki amounted to 0.68 nM.

In turn, `CCC(C)N1Cc2c(N3CCN(C)CC3)nc3ccccc3c2C1=O` (stereo not drawn) showed an inhibitory constant (Ki) of 4.2 nM.

`CCN(CC)C(=O)c1cc(N2CCN(C)CC2)nc2ccccc12` gave an inhibition constant Ki of 1.6 nM.

In the case of `CCOC(=O)c1c(CC)c(N2CCN(C)CC2)nc2ccccc12`, the Ki came to 0.21 nM.

With `CN1CCN(c2nc3ccccc3c(CO)c2CO)CC1`, the Ki was determined as 2.7 nM.

`CCCN(CCC)C(=O)c1c(CC)c(N2CCN(C)CC2)nc2ccccc12`: the Ki stood at 1.1 nM.

For `CCN(CC)C(=O)c1c(C)c(N2CCN(C)CC2)nc2ccccc12`, the Ki was 0.37 nM. This Ki lies about 3-fold lower than the previous one.

`CN1CCN(c2nc3ccccc3c3c2CN(Cc2ccccc2)C3=O)CC1` displayed a Ki of 6.2 nM.

`CN1CCN(c2nc3ccccc3c3c2COC3=O)CC1` yielded a Ki of 2.4 nM.

`CN1CCN(c2nc3ccccc3c3c2CCC3)CC1` displayed a Ki of 0.24 nM.

Regarding `Cc1c(N2CCN(C)CC2)nc2ccccc2c1C(=O)N1CCCC1`, the affinity corresponds to a Ki of 1.6 nM. This Ki lies about 6.7-fold higher than the previous one.

On to `Cc1c(N2CCN(C)CC2)nc2ccccc2c1C(=O)N(C)Cc1ccccc1`, for which affinity was put at a Ki of 0.55 nM.

As for `Cc1c(N2CCN(C)CC2)nc2ccccc2c1C(=O)N(C(C)C)C(C)C`, the Ki turned out to be 2.2 nM. Compared with the last compound, the Ki is about 4-fold higher.

As to `CCOC(=O)c1c(C)c(N2CCN(C)CC2)nc2ccccc12`, affinity was put at a Ki of 0.43 nM.

Take `CCCc1c(N2CCN(C)CC2)nc2ccccc2c1C(=O)OCC`: the affinity, expressed as Ki, was 0.08 nM.

With `CCCc1c(N2CCN(C)CC2)nc2ccccc2c1C(=O)N(C)Cc1ccccc1`, the affinity corresponds to a Ki of 14 nM.

As for `CCOC(=O)c1c(N2CCN(C)CC2)nc2ccccc2c1C`, the inhibition constant Ki came to 0.17 nM.

For `CCCc1c(N2CCN(C)CC2)nc2ccccc2c1C(=O)N(CCC)CCC`, the affinity corresponds to a Ki of 1.2 nM.

`CCCCN(CCCC)C(=O)c1c(C)c(N2CCN(C)CC2)nc2ccccc12` yielded an inhibition constant (Ki) of 0.78 nM. This Ki is about 1.5-fold lower than that of the compound before.

For another assay, the target named is T3, Acetylcholinesterase (Homo sapiens, UniProt P22303).
T3 sequence (P22303 whole entry): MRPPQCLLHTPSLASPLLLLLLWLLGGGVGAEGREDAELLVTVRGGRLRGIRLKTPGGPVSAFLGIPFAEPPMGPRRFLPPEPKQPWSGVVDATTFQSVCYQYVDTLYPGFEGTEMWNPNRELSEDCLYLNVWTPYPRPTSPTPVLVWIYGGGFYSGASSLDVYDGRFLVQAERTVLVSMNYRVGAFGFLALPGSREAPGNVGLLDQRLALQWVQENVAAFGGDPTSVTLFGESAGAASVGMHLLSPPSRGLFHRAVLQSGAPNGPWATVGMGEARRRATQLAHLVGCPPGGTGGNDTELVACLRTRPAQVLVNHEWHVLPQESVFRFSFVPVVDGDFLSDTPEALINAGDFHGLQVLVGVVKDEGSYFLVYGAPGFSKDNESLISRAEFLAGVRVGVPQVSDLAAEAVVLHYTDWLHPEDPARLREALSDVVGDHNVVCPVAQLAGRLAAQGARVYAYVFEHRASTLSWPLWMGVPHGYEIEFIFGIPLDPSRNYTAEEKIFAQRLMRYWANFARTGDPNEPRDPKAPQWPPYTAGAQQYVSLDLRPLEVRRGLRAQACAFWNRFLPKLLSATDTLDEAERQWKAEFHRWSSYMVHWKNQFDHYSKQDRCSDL
Description: (§1) Inhibitory concentration against human acetylcholinesterase
`Cc1c(N2CCN(C)CC2)nc2ccccc2c1C(=O)N(C)Cc1ccccc1` yielded an IC50 greater than 10000 nM.

Compound `CCOC(=O)c1c(C)c(N2CCN(C)CC2)nc2ccccc12` yielded an IC50 greater than 10000 nM.

The target of a further assay is T3, Acetylcholinesterase. This is another data set of the same source.
Description: as §1
As to `Cc1c(N2CCN(C)CC2)nc2ccccc2c1C(=O)NCCCCCCCNc1c2c(nc3ccccc13)CCCC2`, it took 4.1 nM to reach half-maximal inhibition (IC50).

Turning to `Cc1c(Cl)nc2ccccc2c1C(=O)NCCCCCCCNc1c2c(nc3ccccc13)CCCC2`, the IC50 worked out at 3 nM.
